Test results as given in patent US9994915B2, “miR-211 expression and related pathways in human melanoma” (Sanford-Burnham Medical Research Institute, priority 2010, dated 2018).

Columns and labels:
Assay type in all cases: cell-based, human
WM1552C melanoma cells = assay: cell proliferation (cell counts) of WM1552C lines
Procedure: The over-expression of KCNMA1 is often associated with both cell proliferation and cell migration/invasion in various cancers. Therefore, the effects of depletion of miR-211 and associated over-expression of KCNMA1 on these process in melanoma cells were determined. Proliferation rates of melanoma cell lines stably transfected with the miR-211 expression cassette were compared with those of untransfected melanoma cells and cell lines transfected with the empty expression vector (FIG. 8A), respectively.
Assays were performed using WM1552C, WM1552C/VO, WM1552C/211(400), WM1552C/211(800), A375, A375/VO, and A375/211 cell lines. Cells were grown in log phase, trypsinized, counted using an automated cell counter (Cellometer®, Nexcelom Bioscience), and then seeded into 75 cm^2 flasks at 5×10^5 cells per flask (in triplicate). Media was changed after 6 hours, and cells were further fed every 48 hours (Complete Tu Media). At days 4, 10, 15, and 21, cells were trypsinized, counted (Cellometer®, Nexcelom Bioscience), and then reseeded. Each assay was performed in duplicate for all cell lines.

KCNMA1 protein = assay: western blot of KCNMA1 protein in WM1552C lines; conditions: stably transfected WM1552C lines
Procedure: qRT-PCR analyses were then run to determine whether the induced expression of miR-211 in melanoma cells could reduce KCNMA1 transcript levels. […] To further address whether KCNMA1 mRNA levels reflected KCNMA1 protein expression, a western blot analysis was performed looking for KCNMA1 in cell extracts obtained from: 1) WM1552C, 2) WM1552C/VO (WM1552C cells with a stably-incorporated empty expression vector), 3) WM1552C/211(400), 4) WM1552C/211(800), and 5) WM1552C/KC KO (WM1552C cells with a stably-expressing shRNA against the KCNMA1 mRNA) (FIG. 6C). […] To further confirm our observations, we measured the correlation between miR-211 expression and KCNMA1 protein levels (FIG. 6D). […] To confirm that this expression correlation occurred in non-transformed cells in addition to cancerous cell lines, the effect of miR-211 inhibition on the expression of KCNMA1 in melanocytes was examined. Melanocytes were transfected with anti-miR-211 inhibitors (Exiqon) and the protein expression of KCNMA1 was measured. […]
2.5×10^5 cells WM1552C/211(800) cells were seeded into wells of a 6-well plate. […] After 48 hours, the cells were harvested by trypsinization and counted using an automated cell counter (Cellometer®, Nexcelom Bioscience). […]
A KCNMA1 constitutively-expressing plasmid was transiently transfected into WM1552C/211(800) cells. […] KCNMA1 protein expression levels were then detected by KCNMA1 antibody. […]

A375 cells [1] = assay: cell counts in hypoxic chamber (2% O2), A375/211; conditions: A375/211 cells, hypoxic chamber 2% O2 (parental A375 about 68%)
From the text: (§1) To test under actual hypoxic conditions, both cell lines were placed into a hypoxic chamber containing 2% O2 prior to determination of cell counts. […] As in the DFO-simulated hypoxic condition assay, the presence of miR-211 caused the effect to be greatly exacerbated, reducing survival to about 29%.

WM1552C cells = assay: cell counts in hypoxic chamber (2% O2), WM1552C/211; conditions: WM1552C/211 cells, hypoxic chamber 2% O2 (parental WM1552C about 64%)
From the text: as §1

A375 cells [2] = assay: abundance of mitochondria, MitoTracker; conditions: miR-211-expressing cells
[3] = test system: hypoxia-inducible factor 1 alpha (HIF-1α); assay: level of HIF-1α in miR-211-expressing cells
Procedure: Deep-sequencing (RNA-seq) and proteomics (mass spectrometry) data from two melanoma cell lines A375 and W[…], each expressing miR-211 or the empty vector, were generated. […] Energy consumption was investigated in miR-211-expressing cells. Using the Seahorse XF96 Analyzer, it was determined that miR-211-expressing melanoma cells (A375) consumed nearly double the amount of oxygen as control cells expressing the empty vector (FIG. 35). […] Finally, we measured the level of hypoxia-inducible factor 1 alpha (HIF-1α) in miR-211-expressing cells. HIF-1α expression was reduced by miR-211 expression which is an indication of cellular respiration changes (FIG. 37).

PDK4 = assay: proteomics (mass spectrometric) data, PDK4 expression; conditions: miR-211-expressing melanoma cells
Procedure: Deep-sequencing (RNA-seq) and proteomics (mass spectrometry) data from two melanoma cell lines A375 and WM1552C, each expressing miR-211 or the empty vector, were generated. […] Energy consumption was investigated in miR-211-expressing cells. Using the Seahorse XF96 Analyzer, it was determined that miR-211-expressing melanoma cells (A375) consumed nearly double the amount of oxygen as control cells expressing the empty vector (FIG. 35). […] Finally, we measured the level of hypoxia-inducible factor 1 alpha (HIF-1α) in miR-211-expressing cells. HIF-1α expression was reduced by miR-211 expression which is an indication of cellular respiration changes (FIG. 37).
(§2) This target was further confirmed by the cleavage assay, and the downregulation was verified by western blot analysis (FIG. 38). Similarly, peroxisome proliferator-activated receptor-γ coactivator (PGC1α) was identified by the proteomics data and validated by western blot analysis. PGC1α is a low express gene in A375 cells, but it is been targeted by miR-211 according to target cleavage and qPCR results. Finally, insulin-like growth factor-binding protein 5 (IGFBP5) was identified through the RNA-seq data and results are illustrated in FIG. 34.

PDK4 protein = assay: western blot of PDK4 protein; conditions: miR-211-expressing melanoma cells, gel (FIG. 38)
From the text: as §2

## miR-211: pre-miR-211 sequence stably expressed from plasmid pcDNA4/miR-211 in melanoma cells; mature sequence UUCCCUUUGUCAUCCUUCGCCU (SEQ ID NO: 15) (listed as Homo sapiens)
WM1552C melanoma cells; WM1552C/211(400), after a 21-day period
  decrease in cell counts compared to WM1552C: greater than 30%
WM1552C melanoma cells; WM1552C/211(800), after a 21-day period
  decrease in cell proliferation compared to WM1552C: even greater decrease
WM1552C melanoma cells; WM1552C/211 cells, 48 hours
  decrease in growth over the invasion assay period: 8-10%
KCNMA1 protein
  KCNMA1 protein levels compared to WM1552C/VO or untransfected WM1552C: significantly reduced
A375 cells [1]
  survival vs normoxic condition cells: about 29%
WM1552C cells
  survival vs normoxic condition cells: 34%
A375 cells [2]
  number of mitochondria vs empty vector-expressing cells: higher number of mitochondria
[3]
  HIF-1α expression: reduced
PDK4
  PDK4 expression: heavily downregulated
PDK4 protein
  PDK4 protein expression: virtually undetectable
